In patent US20220008425A1, “Pharmaceutical Composition for Treating B-Cell Lymphoma” (FUNDAN UNIVERSITY SHANGHAI CANER CENTER, priority 2018, published 2022):
Entries after “also recorded” stand apart in the source; their conditions may differ.

Experiments:
LY8-RCHO-Luc cells = assay: Transplantation model, bioluminescence tumor growth and survival; assay type: in vivo; details: SCID mice bearing LY8-RCHO-Luc cells; for tumor growth (total photon flux): dosing per Table 1
Excerpt: (§1) Construction of a transplantation model: we transduced LY8-RCHO cells and NU-DUL-1-RCHO cells with lentiviruses overexpressing the firefly luciferase gene to generate stable cells expressing firefly luciferase, referred to as LY8-RCHO-Luc cells and NU-DUL-1-RCHO-Luc cells, respectively. 8-week-old female SCID mice were purchased from SLAC (Shanghai laboratory animal center). The LY8-RCHO-Luc cells and NU-DUL-1-RCHO-Luc cells were resuspended in PBS prior to intraperitoneal injection of 1.5×10^7 cells per mouse. After intraperitoneal injection of the LY8-RCHO-Luc cells, mice were randomized into 6 groups (7 mice in every group) and given saline, R-CHOP, duvelisib, abemaciclib, R-CHOP+duvelisib, and R-CHOP+abemaciclib, respectively. Mice inoculated with the NU-DUL-1-RCHO-Luc cells were randomly divided into 6 groups (7 mice in every group), and were given saline, R-CHOP, duvelisib, AZD4547, R-CHOP+duvelisib, and R-CHOP+AZD4547, respectively. The drug dosing method based on one course of clinical use is shown in Table 1; the R-CHOP regimen was clinically used to treat DLBCL, while duvelisib, abemaciclib, and AZD4547 were tested in clinical trials (associated NCT numbers are NCT02576275, NCT01739309, and […], respectively). Tumor growth was monitored by bioluminescence at day 50 and day 90 after inoculation. For in vivo luminescence imaging, D-luciferin (Promega, Madison, Wis.) was intraperitoneally injected into mice (150 mg/kg). After 10 minutes, the mice were anesthetized by intraperitoneal injection of pentobarbital (50 mg/kg) and then their bioluminescence intensity was examined by using an In Vivo MS FX PRO system (Bruker Corporation, Billerica, Mass.). Luminescence images were captured with an exposure time of 30 seconds and the signal intensity of the tumor was measured by using Bruker MI software. The survival time of each mouse was recorded. Surviving mice were euthanized and dissected 120 days after inoculation and no intraperitoneal tumors were found. Tumor tissue was collected from moribund mice and fixed with 4% formalin. All animal experiments were performed in strict accordance with the experiment protocol approved by the animal ethics committee of Shanghai school of medicine of Fudan university.

NU-DUL-1-RCHO-Luc cells = assay: as above; assay type: in vivo; details: SCID mice bearing NU-DUL-1-RCHO-Luc cells
Excerpt: as §1

[1] = system: AKT phosphorylation, SOX2, FGFR1/2 and CSC-associated molecules in NU-DUL-1-RCHO cells; assay: Immunoblot analysis; assay type: cell-based, human
LY8-RCHO cells [2] = details: 48 hours
Experimental: (§2) Further, we constructed LY8 and NU-DUL-1 cells resistant to chemotherapeutic drugs. Briefly, LY8-ORI and NU-DUL-1-ORI cells were treated with doxorubicin (Selleck Chemicals, Houston, Tex.) and vincristine (Selleck Chemicals, Houston, Tex.) at a clinical ratio of 50:1.4 by increasing the concentration. […] These cells were then treated with 2 μg/mL of 4-hydroperoxycyclophosphamide (4-HC) (Santa Cruz Biotechnology, Inc., Santa Cruz, Calif.) every 21 days for 3 cycles. The obtained CHO-resistant cells are referred to as LY8-CHO and NU-DUL-1-CHO, respectively. CHO-resistant cells were treated with doxorubicin, vincristine, and 4-HC every 22 days to maintain drug tolerance to CHO. […] To maintain RCHO resistance, LY8-RCHO cells and NU-DUL-1-RCHO cells were treated with 32 μg/mL of rituximab containing 20% (v/v) of NHS every 22 days, followed by treatment with doxorubicin, vincristine, and 4-HC. After 48 hours of treatment with doxorubicin, vincristine and 4-HC, drug resistance to CHO and RCHO was determined by a series of CCK-8 assays.
(§3) Cells were seeded in a 96-well plate at a density of 1×10^4/100 μL/well. Cells were pretreated with IPI-145, abemaciclib, AZD4547, PF-573228, R788, or saracatinib at increasing concentrations with or without CHO for 48 hours prior to performing CytoTox-Glo™ cytotoxicity assay. We performed cytotoxicity assay by using a CytoTox-Glo™ cytotoxicity assay kit (Promega Inc., Madison, Wis.) according to their instructions. Briefly, 50 μL of CytoTox-Glo™ cytotoxicity assay reagent was added to all wells, mixed by orbital shaking, and then incubated for 15 minutes at room temperature. Luminescence of experimental dead cells was detected with a Synergy HT microplate reader (BioTek, Biotek Winooski, Minn.), wherein 50 μL of lysate was added to all wells, mixed and incubated for 15 minutes at room temperature prior to detection of total luminescence. Cytotoxicity was calculated according to the following formula: Cytotoxicity (%)=Experimental dead cell luminescence/Total luminescence×100%.

NU-DUL-1-RCHO cells [3] = details: 48 hours
Experimental: as §2, §3

LY8-RCHO cells [4] = assay: EdU cell proliferation assay; assay type: cell-based, human; details: 1 μM
Experimental: (§4) RCHO-resistant DLBCL cells were pretreated with duvelisib, abemaciclib, or AZD4547 at a concentration of 1 μM for 48 or 120 hours prior to EdU assay. For 120 hours of the study, the medium was replaced with a fresh medium containing 1 μM of inhibitor at 48 hours. EdU cell proliferation assay was performed by using a cell-light EdU Apollo643 in vitro flow cytometry kit (RiboBio Inc., Guangzhou, China) according to its instructions. Next, we assayed EdU staining positive cells on a Cytomics FC500 MPL flow cytometer (Beckman Coulter, Brea, Calif.).

NU-DUL-1-RCHO cells [5] = assay: EdU cell proliferation assay; assay type: cell-based, human; details: 1 μM
Experimental: as §4

[6] = inhibitor combined with R-CHOP, experiment ended at day 120
[7] = regimen or inhibitor used alone, dosing per Table 1
[8] = inhibitor alone at increasing concentrations
[9] = inhibitor at increasing concentrations with CHO

## C[C@H](Nc1ncnc2[nH]cnc12)c1cc2cccc(Cl)c2c(=O)n1-c1ccccc1 [duvelisib]
LY8-RCHO-Luc cells; inhibitor combined with R-CHOP
  tumor growth (total photon flux): significantly inhibited tumor growth; also recorded: completely inhibited tumor development
LY8-RCHO-Luc cells; [6]
  survival: prolonged the survival rate compared with R-CHOP or an inhibitor alone; also recorded: all treated mice survived until the end of the experiment at day 120
LY8-RCHO-Luc cells; regimen or inhibitor used alone, vs saline, day 50 and 90
  tumor growth (total photon flux): neither duvelisib nor abemaciclib alone inhibited tumor growth or prolonged the survival rate; also recorded: accelerated tumor growth compared with normal saline, although this difference was not statistically significant
NU-DUL-1-RCHO-Luc cells; inhibitor combined with R-CHOP, dosing per Table 1
  tumor growth (total photon flux): completely inhibit tumor growth
NU-DUL-1-RCHO-Luc cells; [6]
  survival time: prolong the survival time to the end of the experiment at day 120
NU-DUL-1-RCHO-Luc cells; [7]
  survival time: had no efficacy on tumor growth and the survival time
  tumor growth (total photon flux): had no efficacy on tumor growth and the survival time
[1]
  AKT phosphorylation and expression of SOX2 and FGFR1/2: reduces expression of SOX2 and FGFR1/2 by inhibiting AKT phosphorylation; also recorded: prevented phosphorylation of AKT and induced degradation of SOX2
  levels of CSC-associated molecules (OCT4, NANOG, KLF4, c-MYC, CD34, CD133): significantly reduced levels of CSC-associated molecules in the RCHO-resistant cells
LY8-RCHO cells [2]; [8]
  cytotoxicity (induction of cell death), inhibitor used alone: only slightly somewhat cytotoxic; also recorded: negligible effect on direct induction of cell death
LY8-RCHO cells [2]; [9]
  reversal of resistance to CHO (cytotoxicity of CHO), inhibitor co-treated with CHO: significantly enhanced the cytotoxicity of CHO in the two RCHO-resistant cell lines in a dose-dependent manner; also recorded: significantly reversed resistance of RCHO-resistant cells to CHO
NU-DUL-1-RCHO cells [3]; [8]
  cytotoxicity (induction of cell death), inhibitor used alone: only slightly somewhat cytotoxic; also recorded: negligible effect on direct induction of cell death
NU-DUL-1-RCHO cells [3]; [9]
  reversal of resistance to CHO (cytotoxicity of CHO), inhibitor co-treated with CHO: significantly enhanced the cytotoxicity of CHO in the two RCHO-resistant cell lines in a dose-dependent manner; also recorded: significantly reversed resistance of RCHO-resistant cells to CHO
LY8-RCHO cells [4]; 48 hours
  cell proliferation (EdU incorporation): strongly prevented proliferation of LY8-RCHO and NU-DUL-1-RCHO cells
LY8-RCHO cells [4]; 120 hours
  cell proliferation (EdU incorporation): significantly promoted proliferation of cells at 120 hours
NU-DUL-1-RCHO cells [5]; 48 hours
  cell proliferation (EdU incorporation): strongly prevented proliferation of LY8-RCHO and NU-DUL-1-RCHO cells
NU-DUL-1-RCHO cells [5]; 120 hours
  cell proliferation (EdU incorporation): significantly promoted proliferation of cells at 120 hours
